In patent US20230390273A1, “4-PHENYL-TETRAHYDROPYRIDINE DERIVATIVES FOR TREATING HEARING DISEASES” (CILCARE DEV, priority 2021, published 2023):
Counter-ions that a name gives are not always drawn. Like-named read-outs stand apart in the source and are kept apart here.

Assays:
[1] = Plasma and inner ear fluid exposure after single trans-tympanic injection in lipid-based mucoadhesive solution (Example 3); assay type: in vivo, male Wistar rats; settings: for concentration at 1 h: T0 + 1 hour; for concentration at 24 h: T0 + 24 hours; for High concentrations rapidly reached in the IEF (molar) / High concentrations rapidly reached in the inner ear fluid: trans-tympanic injection; for High concentrations rapidly reached in the IEF (molar): approximate conversion; for High concentrations rapidly reached in the inner ear fluid: summary
Procedure: Composition 7P and composition 7X as described in example 2 were administered to male Wistar rats (5 animals per active agent and timepoint), as described below.
At time T0, 30 μL of composition 7P were administered to 15 rats, in a single ear via trans-tympanic injection. The dose of paliroden fumarate that has been administered is thus of 243 μg in one ear of each rat.
At time T0, 30 μL of composition 7X were administered to 15 other rats, in a single ear via trans-tympanic injection. The dose of xaliproden hydrochloride that has been administered is thus of 181.2 μg in one ear of each rat.
For the 15 rats that have received composition 7P and for the 15 rats that have received composition 7X, plasmatic and inner ear expositions were determined via blood and cochlea terminal sampling in order to achieve lithium-heparin plasma and inner ear fluid preparation, at T+1 hour, T+24 hours and T+168 hours. Bioanalytical methods were validated in both matrices (lithium heparin plasma and inner ear fluid) with a range of 0.2 to 815 ng/mL for paliroden (fumarate salt) and 0.2 to 763 ng/mL for xaliproden (hydrochloride salt).

male Wistar rats = test: ABR thresholds after acoustic trauma and trans-tympanic treatment (Example 5); assay type: in vivo
Procedure: Fourty-three male Wistar rats were selected and distributed to treatment and control groups, each group comprising between 6 to 9 rats at the start of the study. Randomization was performed using the ABR threshold in the left ear at 16 kHz as a criterium. The “sham” group comprises 7 rats, which received neither noise exposure nor trans-tympanic injection. […] The “traumatized” group comprises 9 rats, which received noise exposure only and no treatment. The “traumatized vehicle” group comprises 7 rats, which received noise exposure and a trans-tympanic injection of placebo (a composition comprising only Cremophor EL®). The “traumatized paliroden” group comprises 7 rats, which received noise exposure and a trans-tympanic injection of a composition comprising paliroden (fumarate salt), corresponding to composition 7P described in Example 2. The “traumatized xaliproden” group comprises 7 rats, which received noise exposure and a trans-tympanic injection of a composition comprising xaliproden (hydrochloride salt), corresponding to composition 7X described in Example 2.
All animals (except sham group) received a bilateral noise exposure at a noise band of 8-16 kHz at 115 dB SPL RMS during 2 hours (from time T0 to time T0+2 hours).
30 μL of compositions comprising either paliroden or xaliproden as active agent were administered once in both ears of each rat of the treatment groups (30 μL per ear) via trans-tympanic administration by injection between the eardrum and the round window by means of a needle which crosses the eardrum, 4 hours after the start of the noise exposure (i.e. at T0+4 hours, thus 2 hours after the end of the noise exposure), under isoflurane anesthesia. The compositions correspond respectively to compositions 7P and 7X described in Example 2, i.e. they comprise only Cremophor EL® as excipient and either paliroden (fumarate salt) or xaliproden (hydrochloride salt) as active agent. The dose of paliroden (fumarate salt) that is administered is 240 μg per ear of the rats belonging to the “traumatized paliroden” group (240 μg in the 30 μL that are injected via trans-tympanic route by injection between the eardrum and the round window by means of a needle which crosses the eardrum). The dose of xaliproden (hydrochloride salt) that is administered is 192 μg per ear of the rats belonging to the “traumatized xaliproden” group (192 μg in the 30 μL that are injected via trans-tympanic route by injection between the eardrum and the round window by means of a needle which crosses the eardrum). […]

[2] = male, Wistar, other: trans-tympanic injection, rat inner ear fluid, trans-tympanic 243 μg, read-out: Concentration of paliroden (fumarate salt), IEF, Mean
[3] = male, Wistar, plasma, other: trans-tympanic injection, rat, trans-tympanic 243 μg one ear, read-out: Concentration of paliroden (fumarate salt), Plasma, Mean
[4] = one day following noise exposure, from 25 to 32 kHz, paliroden 240 μg/ear, xaliproden 192 μg/ear
[5] = male, Wistar, other: trans-tympanic injection, rat inner ear fluid, trans-tympanic 181.2 μg, read-out: Concentration of xaliproden (hydrochloride salt), IEF, Mean
[6] = male, Wistar, plasma, other: trans-tympanic injection, rat, trans-tympanic 181.2 μg one ear, read-out: Concentration of xaliproden (hydrochloride salt), Plasma, Mean

concentration at 1 h [1, 2] [ng/mL]	concentration at 24 h [1, 2] [ng/mL]	concentration at 1 h [1, 3] [ng/mL]	concentration at 24 h [1, 3] [ng/mL]	Concentration of paliroden (fumarate salt), IEF, Mean ([1]; rat inner ear fluid, trans-tympanic 243 μg, T0 + 168 hours)	Concentration of paliroden (fumarate salt), Plasma, Mean ([1]; rat, trans-tympanic 243 μg one ear, T0 + 168 hours)	High concentrations rapidly reached in the IEF (molar) ([1]; rat)	High concentrations rapidly reached in the inner ear fluid ([1]; rat)	concentration at 1 h [1, 5] [ng/mL]	concentration at 24 h [1, 5] [ng/mL]	concentration at 1 h [1, 6] [ng/mL]	concentration at 24 h [1, 6] [ng/mL]	concentration at 168 h ([1]; male, Wistar, plasma, other: trans-tympanic injection, rat, trans-tympanic 181.2 μg one ear, T0 + 168 hours, read-out: Concentration of xaliproden (hydrochloride salt), Plasma, Mean) [ng/mL]	Concentration of xaliproden (hydrochloride salt), IEF, Mean ([1]; rat inner ear fluid, trans-tympanic 181.2 μg, T0 + 168 hours)	SMILES	ABR Threshold shifts reduction in comparison to the traumatized vehicle group (male Wistar rats; 7 days post-noise, from 16 to 32 kHz, paliroden 240 μg/ear)	ABR Threshold shifts reduction in comparison to the traumatized vehicle group (male Wistar rats; [4])	ABR Threshold shifts reduction in comparison to the traumatized vehicle group (male Wistar rats; 7 days post-noise, from 25 to 32 kHz, xaliproden 192 μg/ear)
5100	3.2	0.9	1.7	BLQ	BLQ	approximately 10 μM	approximately 5000 ng/mL	–	–	–	–	–	–	FC(F)(F)c1cccc(C2=CCN(CCc3ccc(-c4ccccc4)cc3)CC2)c1 [paliroden (fumarate salt), 1-[2-(4-biphenylyl)ethyl]-4-(3-trifluoromethylphenyl)-1,2,3,6-tetrahydropyridine]	15-20 dB	approximately 10 dB	–
–	–	–	–	–	–	~5 µM	~2500 ng/mL	2510	74.3	4.4	5.2	0.5	BLQ	FC(F)(F)c1cccc(C2=CCN(CCc3ccc4ccccc4c3)CC2)c1 [xaliproden (hydrochloride salt), 1-[2-(2-naphthyl)ethyl]-4-(3-trifluoromethylphenyl)-1,2,3,6-tetrahydropyridine]	–	approximately 10 dB	approximately 15 dB
